Measured values taken from BigSolDB 2.1.

COC1=C(OC)C(=O)C(C/C=C(\C)CC/C=C(\C)CC/C=C(\C)CC/C=C(\C)CC/C=C(\C)CC/C=C(\C)CC/C=C(\C)CC/C=C(\C)CC/C=C(\C)CCC=C(C)C)=C(C)C1=O
solubility (mole fraction)
Details | in ethanol | in ethyl acetate | in isopropanol | in n-butanol | in n-hexane | in n-propanol
270.15 K | 1e-05 | 0.0006 | 7e-06 | 1e-05 | 0.0009 | –
280.15 K | 1.1e-05 | 0.0033 | 8e-06 | 1.7e-05 | 0.0044 | 0.0002
290.15 K | 1.6e-05 | 0.0178 | 6.2e-05 | 0.0001 | 0.0207 | 0.0005
300.15 K | 6.1e-05 | 0.09 | 0.0005 | 0.0011 | 0.0931 | 0.0014
310.15 K | 0.0002 | 0.431 | 0.0029 | 0.0107 | 0.399 | 0.0039
320.15 K | 0.0014 | 0.647 | 0.0165 | 0.0934 | 0.55 | 0.011
